Laboratory results taken from PMC3350394, “Kinetic analysis and test-retest variability of the radioligand [^11C](R)-PK11195 binding to TSPO in the human brain - a PET study in control subjects” (EJNMMI Research, 2012).

Columns and labels:
[1] = Radioligand brain exposure (PET); format: in vivo, human
Procedure: To calculate the percentage of [^11C](R)-PK11195 injected that was present in the brain at the time of maximal radioactivity, the radioactivity concentration in the ROI for the whole brain was multiplied by the estimated average brain volume (1,250 mL), divided by the radioactivity injected and multiplied by 100 to obtain the percentage of injected radioactivity.
Average radioactivity for the ROI was calculated by pooling the data from the series of brain sections. The radioactivity concentration for each sequential time frame was corrected for the physical decay of carbon-11 and used to obtain the regional time-radioactivity curves (TACs; in kiloBecquerels per cubic centimetre).

[2] = Plasma metabolite analysis using HPLC; format: in vivo, human
Excerpt: The method for the determination of the fraction of radioactivity corresponding to unchanged [^11C](R)-PK11195 and labelled metabolites during the time of a PET measurement was a modification of a high-performance liquid chromatography (HPLC) method developed for other PET radioligands. […] The HPLC system used consisted of a Merck-Hitachi D-7000 interface module, a Merck-Hitachi L-7100 pump and a Rheodyne injector (7125 with a 5.0-mL loop) (VWR International, Stockholm, Sweden) equipped with a Waters/-Bondapack-C18 column (300 mm × 7.8 mm, 10-μm particle size; Waters, Milford, MA, USA) and a Merck-Hitachi L-7400 absorbance detector (254 nm) in series with a Packard Radiomatic 150TR radiometric detector (Packard BioScience, Meriden, CT, USA) equipped with a PET flow cell (600-μL cell). The HPLC methods used were acetonitrile (A) and phosphoric acid (0.01 M) (B) as mobile phase at 6.0 mL/min. […] The radioactive peak having a retention time corresponding to [^11C](R)-PK11195 was integrated, and its area was expressed as a percentage of the sum of the areas of all detected radioactive peaks.

[3] = parameters: method as in PMID 19050880, PMID 16039131; settings: cited from earlier work
ABCC1 = test system: ABCC1; parameters: method as in PMID 19948230; settings: cited from earlier work
ABCG2 = test system: ABCG2; parameters: method as in PMID 19948230; settings: cited from earlier work
TSPO [4] = test system: TSPO; parameters: method as in PMID 1782994; settings: grey matter; baboons; indirect quantitative approach; cited from earlier work
TSPO [5] = test system: TSPO; parameters: method as in PMID 22008728; settings: TSPO SNP Ala147Thr; cited from earlier work
TSPO [6] = target: TSPO (Homo sapiens, UniProt P30536); assay: PET, linear graphical analysis (Logan) distribution volume; format: in vivo; parameters: from tissue; host or cells: living human brain (in vivo PET in six control subjects); settings: for Error % mean(SD) / Error range (%): VT Logan test-retest; for VT Logan: mean(SD)
Procedure: The [^11C](R)-PK11195 distribution volume was also quantified using a linear graphical analysis for reversible ligand binding. The regional distribution volumes were determined from the slope of the linear plots obtained from 8 to 60 min after intravenous (i.v.) injection using the radioactivity of unchanged [^11C](R)-PK11195 in arterial plasma as an input function.

[7] = at peak, approximately 1 min after i.v. injection, n = 6
[8] = by the end of PET measurement time

Sequence of TSPO (Homo sapiens, UniProt P30536) (P30536 whole entry): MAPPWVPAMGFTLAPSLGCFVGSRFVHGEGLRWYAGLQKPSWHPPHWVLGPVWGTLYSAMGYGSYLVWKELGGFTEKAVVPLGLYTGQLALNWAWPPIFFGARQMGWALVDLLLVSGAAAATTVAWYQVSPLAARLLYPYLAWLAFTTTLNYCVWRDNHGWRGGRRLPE

CC[C@@H](C)N([11CH3])C(=O)c1cc2ccccc2c(-c2ccccc2Cl)n1 [[^11C](R)-PK11195]
radioactivity injected (ID%) present in the brain [1, 7]: about 2.5% | radioactivity injected (ID%) present in the brain, range [1, 7]: 1.9% to 3.2 | time of peak of total brain radioactivity after injection ([1]; intravenous injection): approximately 1 min | mean ID% in the brain ([1]; measurement time from 20 to 60 min): 1.5% to 1.3 | polarity of radioactive metabolites in plasma ([2]; HPLC): more polar than the parent compound | unchanged fraction in plasma [2, 8]: 70 ± 1.5% | unchanged fraction in plasma, range [2, 8]: 60% to 77 | metabolism ([2]; human plasma): not extensive | log P [3]: 1.4 to 3.4 | substrate for ABC transporter (ABCC1): not a substrate | substrate for ABC transporter (ABCG2): not a substrate | fraction of non-specifically bound radioligand (TSPO [4]): about 60% | sensitivity to TSPO genotype (TSPO [5]): not sensitive to TSPO genotype | Error % mean(SD) (TSPO [6]; brainstem): -8(12) % | Error range (%) (TSPO [6]; brainstem): -24 to 12% | VT Logan (TSPO [6]; brainstem, retest): 0.67(0.19) | VT Logan (TSPO [6]; brainstem, test): 0.74(0.21) | Error % mean(SD) (TSPO [6]; caudate): -5(23) % | Error range (%) (TSPO [6]; caudate): -37 to 25% | VT Logan (TSPO [6]; caudate, retest): 0.59(0.19) | VT Logan (TSPO [6]; caudate, test): 0.64(0.16) | Error % mean(SD) (TSPO [6]; cerebellum): -4(18) % | Error range (%) (TSPO [6]; cerebellum): -29 to 20% | VT Logan (TSPO [6]; cerebellum, retest): 0.68(0.18) | VT Logan (TSPO [6]; cerebellum, test): 0.72(0.18) | Error % mean(SD) (TSPO [6]; grey matter): -4(16) % | Error range (%) (TSPO [6]; grey matter): -28 to 17% | VT Logan (TSPO [6]; grey matter, retest): 0.65(0.18) | VT Logan (TSPO [6]; grey matter, test): 0.69(0.17) | Error % mean(SD) (TSPO [6]; putamen): 3(25) % | Error range (%) (TSPO [6]; putamen): -25 to 42% | VT Logan (TSPO [6]; putamen, retest): 0.73(0.26) | VT Logan (TSPO [6]; putamen, test): 0.70(0.15) | Error % mean(SD) (TSPO [6]; thalamus): -3(20) % | Error range (%) (TSPO [6]; thalamus): -26 to 27% | VT Logan (TSPO [6]; thalamus, retest): 0.76(0.25) | VT Logan (TSPO [6]; thalamus, test): 0.80(0.24) | Error % mean(SD) (TSPO [6]; white matter): -4(19) % | Error range (%) (TSPO [6]; white matter): -32 to 19% | VT Logan (TSPO [6]; white matter, retest): 0.65(0.20) | VT Logan (TSPO [6]; white matter, test): 0.69(0.18) | Error % mean(SD) (TSPO [6]; whole brain): -4(16) % | Error range (%) (TSPO [6]; whole brain): -29 to 17% | VT Logan (TSPO [6]; whole brain, retest): 0.65(0.19) | VT Logan (TSPO [6]; whole brain, test): 0.69(0.17)
